The target of assay [1] is acetylcholinesterase (AChE) (Electrophorus electricus, UniProt O42275). Briefly: modified Ellman spectrophotometric assay. Type of assay: biochemical. (In general: Ellman's reagent forms a yellow product with free thiols.)
For assay [2], the target named is butyrylcholinesterase (BChE) (Equus caballus, UniProt P81908). Put plainly: modified Ellman spectrophotometric assay. The assay is classed as biochemical.
Sequence of butyrylcholinesterase (BChE) (P81908 whole entry): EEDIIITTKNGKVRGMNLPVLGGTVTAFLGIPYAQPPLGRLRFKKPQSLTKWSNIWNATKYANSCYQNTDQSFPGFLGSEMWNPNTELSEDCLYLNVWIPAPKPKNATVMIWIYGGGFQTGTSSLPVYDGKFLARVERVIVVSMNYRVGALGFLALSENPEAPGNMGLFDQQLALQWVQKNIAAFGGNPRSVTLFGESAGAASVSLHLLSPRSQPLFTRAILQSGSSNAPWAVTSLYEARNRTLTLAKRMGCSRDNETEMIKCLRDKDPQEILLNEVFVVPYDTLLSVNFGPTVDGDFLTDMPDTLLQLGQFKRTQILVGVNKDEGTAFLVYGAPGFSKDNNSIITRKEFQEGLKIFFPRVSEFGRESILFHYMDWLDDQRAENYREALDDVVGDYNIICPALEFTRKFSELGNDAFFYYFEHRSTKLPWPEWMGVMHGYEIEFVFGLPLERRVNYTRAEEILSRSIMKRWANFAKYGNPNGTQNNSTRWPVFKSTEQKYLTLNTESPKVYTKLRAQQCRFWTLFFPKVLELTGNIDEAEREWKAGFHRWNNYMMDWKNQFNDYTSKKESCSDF

Sequence of acetylcholinesterase (AChE) (O42275 24-633): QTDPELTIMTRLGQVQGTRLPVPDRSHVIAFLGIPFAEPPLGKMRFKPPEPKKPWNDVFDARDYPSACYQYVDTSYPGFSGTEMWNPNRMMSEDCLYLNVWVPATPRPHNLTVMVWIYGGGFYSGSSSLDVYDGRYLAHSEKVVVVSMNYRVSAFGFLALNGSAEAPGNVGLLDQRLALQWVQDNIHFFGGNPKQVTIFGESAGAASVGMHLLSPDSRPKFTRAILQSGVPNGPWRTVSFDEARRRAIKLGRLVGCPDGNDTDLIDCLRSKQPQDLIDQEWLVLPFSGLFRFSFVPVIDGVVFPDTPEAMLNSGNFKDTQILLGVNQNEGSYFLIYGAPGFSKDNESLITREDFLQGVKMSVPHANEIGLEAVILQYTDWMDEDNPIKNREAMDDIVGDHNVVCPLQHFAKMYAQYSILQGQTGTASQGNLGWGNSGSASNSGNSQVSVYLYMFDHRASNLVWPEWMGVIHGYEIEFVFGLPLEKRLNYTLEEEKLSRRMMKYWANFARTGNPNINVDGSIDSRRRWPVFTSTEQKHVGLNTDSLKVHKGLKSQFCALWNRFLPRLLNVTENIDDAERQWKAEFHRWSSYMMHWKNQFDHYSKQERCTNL

Broadly, the IC50 is the concentration that inhibits the measured activity by half. Higher therefore signals weaker potency. Regarding `C[C@@H]1O[C@@H](O[C@H]2C(=O)c3c(O)cc(O)cc3O[C@@H]2c2cc(O)c(O)c(O)c2)[C@H](O)[C@H](O)[C@H]1O` [compound 1, dihydromyricetin 3-O-rhamnoside], the IC50 in assay [1] was 70 ± 8 µM; in assay [2] it was 71 ± 4 µM.
